In publication PMC9000575, “Solution Equilibrium Studies on Salicylidene Aminoguanidine Schiff Base Metal Complexes: Impact of the Hybridization with L-Proline on Stability, Redox Activity and Cytotoxicity” (Molecules, 2022):
Marks after values point to notes of the source that are not given here.

Columns and labels:
[1] = test system: Colo-205 human colon adenocarcinoma cells; test: MTT cytotoxicity test; type: cell-based; conditions: Homo sapiens, Colo-205, 72 h
Procedure: (§1) All cell culture reagents were obtained from Sigma-Aldrich and plastic ware from Sarstedt (Nümbrecht, Germany). Human colon Colo-205 (chemo-sensitive) and Colo-320 (doxorubicin-resistant) adenocarcinoma and MRC-5 human embryonal lung fibroblast cell lines were purchased from LGC Promochem, Teddington, UK. The colon adenocarcinoma cells were cultured in Roswell Park Memorial Institute (RPMI) 1640 medium supplemented with 10% heat-inactivated fetal bovine serum, 2 mM L-glutamine, 1 mM sodium pyruvate and 100 mM HEPES. The MRC-5 cell line was cultured in Eagle’s Minimal Essential Medium (EMEM, Sigma-Aldrich, St. Louis, MO, USA) supplemented with a non-essential amino acid (NEAA) mixture (Sigma-Aldrich, St. Louis, MO, USA) a selection of vitamins, 10% heat-inactivated foetal bovine serum (FBS), 2 mM L-glutamine (Sigma-Aldrich, St. Louis, MO, USA), 1 mM Na-pyruvate (Sigma-Aldrich, St. Louis, MO, USA), nystatin (Sigma-Aldrich, St. Louis, MO, USA) and a penicillin-streptomycin mixture (Sigma-Aldrich, St. Louis, MO, USA) in concentrations of 100 U/L and 10 mg/L, respectively. The cells were incubated at 37 °C, in a 5% CO2, 95% air atmosphere. All cell lines were detached with Trypsin-Versene® (EDTA) solution for 5 min at 37 °C.
(§2) The tested compounds were dissolved in 90% (v/v) DMSO/H2O using 8 mM concentration, […] in the final samples the DMSO content was always lower than 1%. Then stock solutions were diluted in complete culture medium, and two-fold serial dilutions of compounds were prepared in 100 μL of the medium, horizontally. The semi-adherent colon adenocarcinoma cells were treated with Trypsin-Versene (EDTA) solution. They were adjusted to a density of 1 × 10^4 cells in 100 μL of RPMI 1640 or EMEM medium and were added to each well, with the exception of the medium control wells. The final volume of the wells containing compounds and cells was 200 μL. The plates containing Colo-205, Colo-320 or MRC-5 cells were incubated at 37 °C for 72 h; at the end of the incubation period, 20 μL of MTT solution (from a stock solution of 5 mg/mL) were added to each well. After incubation at 37 °C for 4 h, 100 μL of SDS solution (10% in 0.01 M HCI) were added to each well, and the plates were further incubated at 37 °C overnight. Cell growth was determined by measuring the optical density (OD) at 540/630 nm with a Multiskan EX plate reader (Thermo Labsystems, Cheshire, WA, USA). Inhibition of the cell growth (expressed as IC50: inhibitory concentration that reduces by 50% the growth of the cells exposed to the tested compounds) was determined from the sigmoid curve where 100 − ((ODsample − ODmedium control)/(ODcell control − ODmedium control)) × 100 values were plotted against the logarithm of compound concentrations. Curves were fitted by GraphPad Prism software (2021, Graphpad Software, San Diego, CA, USA) using the sigmoidal dose–response model (comparing variable and fixed slopes). The IC50 values were obtained from at least three independent experiments.

[2] = test system: Colo-320 (doxorubicin-resistant) human colon adenocarcinoma cells; test: MTT cytotoxicity test; type: cell-based; conditions: Homo sapiens, Colo-320, 72 h
Procedure: as §1, §2

[3] = test system: MRC-5 human embryonal lung fibroblast cells; test: MTT cytotoxicity test; type: cell-based; conditions: Homo sapiens, MRC5, MRC-5, 72 h
Procedure: as §1, §2

[4] = proton dissociation constants by 1H NMR titration; type: physicochemical
Procedure: ^1H NMR spectra recorded for SISC in 30% (v/v) d6-DMSO/H2O (Figure S3) clearly show two deprotonation steps and all the CH protons are sensitive to the changes of the pH. Similarly, the changes in the chemical shifts of the peaks of the aromatic CH and the CH=N protons indicate two steps in the ^1H NMR spectra of Pro-SISC-Me recorded in water (Figure 3a), thus two pKa values were calculated (pK2, pK3 in Table 1). However, this is only true for the major species identified as the E isomer (Figure 3b), while for the other isomer (Z, Figure 3c) only one pKa (7.55 ± 0.02) could be determined. The E and Z geometric isomers are the consequence of the C=N double bond. […] Based on the integrals of the CH=N peaks, the fraction of the E isomer is 86% at pH < 6.5, and it is decreased to 82% reaching pH 11.5; however, the appearance of further minor peaks at pH > 9.8 indicates the presence of other species in low fraction. The same picture is seen when the changes of the CH3 peaks are considered (Figure S4), and only the peak of the CH-COOH proton was sensitive to the first deprotonation process at pH < 3, which confirms that pK1 of Pro-SISC-Me applies to COOH.
The ^1H NMR studies for the ligands were carried out on a Bruker Ultrashield 500 Plus instrument (Billerica, MA, USA). DSS was used as an internal NMR standard and WATERGATE water suppression pulse scheme was used. Spectra were recorded in 10% (v/v) D2O/H2O or in 30% (v/v) DMSO-d6/H2O solvent mixtures in a concentration of 1 mM, respectively, at ionic strength of 0.10 M (KCl).

[5] = Pro-SISC-Me, H2O, major species (E isomer)

| pK1 (H3L2+) [4, 5] | pK2 (H2L+) [4, 5] | pK3 (HL) [4, 5] | pKa ([4]; water, only one pKa could be determined, read-out: pKa of the minor (Z) isomer) | pK1 (H2L+) ([4]; SISC, 30% DMSO/H2O) | pK2 (HL) ([4]; SISC, 30% DMSO/H2O) | Compound | IC50 [1] [µM] | IC50 [2] [µM] | IC50 [3] [µM] |
| --- | --- | --- | --- | --- | --- | --- | --- | --- | --- |
| ≤2.5 ^c | 7.25 ± 0.03 ^c | 9.75 ± 0.03 ^c | 7.55 | – | – | Cc1cc(C=NNC(=N)N)c(O)c(CN2CCCC2C(=O)O)c1 (stereo not drawn) [Pro-SISC-Me] | > 80 | > 80 | > 80 |
| – | – | – | – | 7.68 ± 0.03 | 10.72 ± 0.03 | N=C(N)NN=Cc1ccccc1O [SISC, 2-(2-hydroxybenzylidene)hydrazinecarboximidamide] | > 80 | > 80 | > 80 |
